Values of other authors, collected in patent US20030135108A1, “High throughput screening methods using magnetic resonance imaging agents” (priority 2001, published 2003).

Settings: thermodynamic stability of the Gd(III) chelate complex

Compound: O=C([O-])CN(CCN(CC(=O)[O-])CC(=O)[O-])CCN(CC(=O)[O-])CC(=O)[O-].[Gd+3] [Gd(DTPA)^2−]
- stability constant (K), formation constant, logK: 22.4

Compound: O=C([O-])CN1CCN(CC(=O)[O-])CCN(CC(=O)O)CCN(CC(=O)[O-])CC1.[Gd+3] [Gd-DOTA]
- stability constant (K), formation constant, logK: 28.5
